# In patent US10815235B2, “Polycyclic compounds and uses thereof” (priority 2017, dated 2020):
# Where two headings read alike, the source gives them in different places.
# What was measured:
# Serotonin 5-HT7 receptor = molecular target: T1, Serotonin 5-HT7 receptor (Homo sapiens, UniProt P34969); assay: cAMP HTRF Assay for Gs Coupled Receptors, agonist and antagonist mode; format: cell-based
# T1 construct: expressed in transfected cells; host or cells: CHO-K1
# Protocol: Antagonist and agonist activities were shown using a cAMP HTRF Assay for Gs Coupled Receptors. The assay was prepared as follows: CHO-K1 cells expressing recombinant human and Serotonin 5-HT7 receptors were grown, prior to analysis, in media without antibiotic. The cells were detached by gentle flushing with PBS-EDTA (5 mM EDTA), recovered by centrifugation, and resuspended in assay buffer (KRH: 5 mM KCl, 1.25 mM MgSO4, 124 mM NaCl, 25 mM HEPES, 13.3 mM Glucose, 1.25 mM KH2PO4, 1.45 mM CaCl2, 0.5 g/l BSA).
# To determine agonist activity (96 well), 12 μL of cells were mixed with 12 μL of the test compound at increasing concentrations and then incubated 30 min at room temperature. After addition of the lysis buffer and 1 hour incubation, cAMP concentrations were estimated according to the manufacturer specification.
# Antagonist activity was determined in 96 well plates: 12 μL of cells were mixed with 6 μL of the test compound at increasing concentrations and then incubated 10 min. Thereafter 6 μL of the reference agonist was added at a final concentration corresponding to the historical EC80. The plates were then incubated for 30 min at room temperature. After addition of the lysis buffer and 1 hour incubation, cAMP concentrations were estimated according to the manufacturer specification. IC50 values were used to determine whether a compound acted as an antagonist.
# Dopamine D2L receptor = Dopamine D2L receptor (Homo sapiens, UniProt P14416); assay: GTPγS Scintillation Proximity Assay, agonist and antagonist mode; format: biochemical
# Dopamine D2L receptor, sequence (P14416 whole entry): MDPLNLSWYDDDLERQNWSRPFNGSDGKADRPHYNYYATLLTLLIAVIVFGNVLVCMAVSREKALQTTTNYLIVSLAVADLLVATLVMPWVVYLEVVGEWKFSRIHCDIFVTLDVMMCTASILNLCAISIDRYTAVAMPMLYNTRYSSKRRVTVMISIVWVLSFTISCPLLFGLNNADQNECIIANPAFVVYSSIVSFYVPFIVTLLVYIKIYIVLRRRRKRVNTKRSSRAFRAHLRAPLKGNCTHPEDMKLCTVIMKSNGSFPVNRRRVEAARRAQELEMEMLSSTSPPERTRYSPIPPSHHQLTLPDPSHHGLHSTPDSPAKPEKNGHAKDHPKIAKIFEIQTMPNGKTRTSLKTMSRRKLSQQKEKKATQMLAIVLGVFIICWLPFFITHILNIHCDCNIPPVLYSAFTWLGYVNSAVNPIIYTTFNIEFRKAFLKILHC
# Protocol: (§1) Antagonist and agonist activities were determined using a GTPγS Scintillation Proximity Assay. The assay was prepared as follows: Membrane extracts were prepared from recombinant human Dopamine D2L, D3; Serotonin 5-HT1A, 5-HT1B, 5-HT1D and 5-HT1F receptors.
# (§2) Samples were tested by proprietary biological assays by Ogeda S. A., Euroscreen FAST Business Unit, Rue Adrienne Bolland, 47 B-6041 Gosselies, Belgium. Each protein assay was prepared using the following conditions.
# (§3) D2L • Assay buffer: 20 mM HEPES pH 7.4; 100 mM NaCl, 10 μg/ml saponin, 30 mM MgCl2, 0.1% protease-free BSA; • Membranes: recombinant D2L membrane extracts thawed on ice and diluted in assay buffer to give 1 mg/ml (10 μg/well) and kept on ice; • GDP: diluted in assay buffer to give a 3 μM final assay concentration; • Beads: PVT-WGA (Perkin Elmer, RPNQ001), diluted in assay buffer at 25 mg/ml (0.25 mg/well); and • GTPγ^35S: (PerkinElmer NEG030X), diluted in assay buffer to give 0.1 nM. D3 • Assay buffer: 20 mM HEPES pH 7.4; 100 mM NaCl, 10 μg/ml saponin, 1 mM MgCl2, 0.1% protease-free BSA; • Membranes: recombinant D3 membrane extracts thawed on ice and diluted in assay buffer to give 1 mg/ml (10 μg/well) and kept on ice; • GDP: diluted in assay buffer to give a 1 μM final assay concentration; • Beads: PVT-WGA (Perkin Elmer, RPNQ001), diluted in assay buffer at 50 mg/ml (0.5 mg/well); and • GTPγ^35S: (PerkinElmer NEG030X), diluted in assay buffer to give 0.1 nM.
# (§4) Membranes were mixed with GDP (volume:volume 1:1) and incubated for at least 15 min on ice. In parallel, GTPγ[^35S] is mixed with the beads (volume:volume 1:1) just before starting the reaction.
# (§5) To determine agonist activity, the following reagents were added in the wells of an Optiplate (Perkin Elmer): 50 μL of test or reference ligand, 10 μL of assay buffer, 20 μl of the membranes:GDP mix, and 20 μL of the GTPγ[^35S]:beads mix. EC50 values were used to determine whether a compound acted as an agonist.
# (§6) To determine antagonist activity, the following reagents were added in the wells of an Optiplate (Perkin Elmer): 50 μL of test or reference ligand, 20 μL of the membranes:GDP mix, then the plate is incubated 15 minutes at room temperature. After incubation, 10 μL of reference agonist at historical EC80 (final concentration) was added, followed by 20 μL of the GTPγ[^35S]:beads mix.
# (§7) The plates were covered with a top seal, mixed on an orbital shaker for 2 min, and then incubated for 1 hour at room temperature. Then the plates were centrifuged for 10 min at 2000 rpm, incubated at room temperature 1 hour and counted for 1 min/well with a PerkinElmer TopCount reader. IC50 values were used to determine whether a compound acted as an antagonist.
# Dopamine D3 receptor = Dopamine D3 receptor (Homo sapiens, UniProt P35462); assay: as above; format: biochemical
# Dopamine D3 receptor, sequence (P35462 whole entry): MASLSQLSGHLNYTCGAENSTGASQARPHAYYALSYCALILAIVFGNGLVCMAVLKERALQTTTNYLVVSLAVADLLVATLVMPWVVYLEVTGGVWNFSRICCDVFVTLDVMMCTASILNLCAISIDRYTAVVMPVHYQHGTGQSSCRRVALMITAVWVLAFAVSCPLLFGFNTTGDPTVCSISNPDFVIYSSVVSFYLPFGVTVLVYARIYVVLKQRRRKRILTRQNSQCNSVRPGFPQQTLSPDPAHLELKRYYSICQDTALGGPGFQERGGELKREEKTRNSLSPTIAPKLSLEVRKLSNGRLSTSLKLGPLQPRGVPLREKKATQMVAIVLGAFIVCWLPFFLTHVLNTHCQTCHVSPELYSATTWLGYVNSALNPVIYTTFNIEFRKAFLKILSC
# Protocol: as §1, §2, §3, §4, §5, §6, §7
# [1] = molecular target: Serotonin 5-HT1B receptor (Homo sapiens, UniProt P28222); assay: as above; format: biochemical
# Serotonin 5-HT1B receptor, sequence (P28222 whole entry): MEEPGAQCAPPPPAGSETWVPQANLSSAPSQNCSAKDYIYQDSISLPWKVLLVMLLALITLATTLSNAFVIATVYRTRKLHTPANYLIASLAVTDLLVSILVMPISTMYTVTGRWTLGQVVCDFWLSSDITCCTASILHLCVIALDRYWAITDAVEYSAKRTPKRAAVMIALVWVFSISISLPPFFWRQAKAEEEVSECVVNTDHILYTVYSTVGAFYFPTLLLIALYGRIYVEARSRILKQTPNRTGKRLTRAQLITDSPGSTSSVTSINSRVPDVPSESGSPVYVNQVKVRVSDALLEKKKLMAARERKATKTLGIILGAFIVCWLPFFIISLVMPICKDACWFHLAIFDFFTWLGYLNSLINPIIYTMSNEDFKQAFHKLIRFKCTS
# Protocol: as §1, §2
# 5-HT1B • Assay buffer: 20 mM HEPES pH 7.4; 100 mM NaCl, 10 μg/ml saponin, 3 mM MgCl2; • Membranes: recombinant 5-HT1B membrane extracts thawed on ice and diluted in assay buffer to give 1 mg/ml (10 μg/well) and kept on ice; • GDP: diluted in assay buffer to give a 3 μM final assay concentration; • Beads: PVT-WGA (Perkin Elmer, RPNQ001), diluted in assay buffer at 50 mg/ml (0.5 mg/well); and • GTPγ^35S: (PerkinElmer NEG030X), diluted in assay buffer to give 0.1 nM.
# as §4, §5, §6, §7
# [2] = Antagonist Activity (IC50), 5-HT7, CHO-K1 cells, vs reference agonist at EC80
# [3] = IC50 value for the Serotonin 5-HT7 receptor, antagonist mode, bound stated
# [4] = Agonist Activity (EC50), D2L, membrane extracts
# [5] = Antagonist Activity (IC50), D2L, membrane extracts, vs reference agonist at EC80
# [6] = IC50 value for the Dopamine D2L receptor, antagonist mode, bound stated
# [7] = Agonist Activity (EC50), D3, membrane extracts
# [8] = Antagonist Activity (IC50), D3, membrane extracts, vs reference agonist at EC80
# [9] = EC50 value for the Dopamine D3 receptor, agonist mode, bound stated
# [10] = IC50 value for the Dopamine D3 receptor, antagonist mode, bound stated
# [11] = EC50 value for the Dopamine D2L receptor, agonist mode, bound stated
# [12] = Antagonist Activity (IC50), 5-HT1B, membrane extracts, vs reference agonist at EC80
# [13] = IC50 value for the Serotonin 5-HT1B receptor, antagonist mode, bound stated
# T1 sequence (P34969 whole entry): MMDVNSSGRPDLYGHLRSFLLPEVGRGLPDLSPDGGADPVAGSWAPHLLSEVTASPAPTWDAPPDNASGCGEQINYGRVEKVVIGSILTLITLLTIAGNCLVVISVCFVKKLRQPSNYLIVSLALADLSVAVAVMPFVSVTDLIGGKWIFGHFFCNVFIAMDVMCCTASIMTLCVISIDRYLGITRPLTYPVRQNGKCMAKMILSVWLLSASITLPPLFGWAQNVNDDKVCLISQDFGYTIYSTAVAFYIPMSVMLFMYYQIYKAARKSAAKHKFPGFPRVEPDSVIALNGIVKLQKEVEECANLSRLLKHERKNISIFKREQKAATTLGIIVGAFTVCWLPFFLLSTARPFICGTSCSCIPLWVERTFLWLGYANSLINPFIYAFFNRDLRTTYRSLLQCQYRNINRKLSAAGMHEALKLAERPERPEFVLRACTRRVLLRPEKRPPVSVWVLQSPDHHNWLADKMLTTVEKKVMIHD
structure (smiles),measurement,setting,value
"CCN(CC(F)(F)F)C(=O)N[C@H]1C[C@@H]2c3cccc4[nH]c(C5CC5)c(c34)C[C@H]2N(C)C1 [Compound A17H, 3-((6aR,9S,10aR)-5-cyclopropyl-7-methyl-4,6,6a,7,8,9,10,10a-octahydroindolo[4,3-fg]quinolin-9-yl)-1-ethyl-1-(2,2,2-trifluoroethyl)urea]",IC50,Serotonin 5-HT7 receptor; [2],140 nM
same,IC50,Serotonin 5-HT7 receptor; [3],< 1000 nM
same,EC50,Dopamine D2L receptor; [4],1.1 nM
same,IC50,Dopamine D2L receptor; [5],4.2 nM
same,IC50,Dopamine D2L receptor; [6],< 1000 nM
same,EC50,Dopamine D3 receptor; [7],8.2 nM
same,IC50,Dopamine D3 receptor; [8],11 nM
same,EC50,Dopamine D3 receptor; [9],< 1000 nM
same,IC50,Dopamine D3 receptor; [10],< 1000 nM
"CCN(CC)C(=O)N[C@H]1C[C@@H]2c3cccc4[nH]c(C(F)(F)F)c(c34)C[C@H]2N(C)C1 [Compound A9H, 1,1-diethyl-3-((6aR,9S,10aR)-7-methyl-5-(trifluoromethyl)-4,6,6a,7,8,9,10,10a-octahydroindolo[4,3-fg]quinolin-9-yl)urea]",IC50,Serotonin 5-HT7 receptor; [2],190 nM
same,IC50,Serotonin 5-HT7 receptor; [3],< 1000 nM
same,EC50,Dopamine D2L receptor; [4],4.6 nM
same,IC50,Dopamine D2L receptor; [5],42 nM
same,EC50,Dopamine D2L receptor; [11],< 1000 nM
same,IC50,Dopamine D2L receptor; [6],< 1000 nM
same,IC50,Dopamine D3 receptor; [8],13 nM
same,IC50,Dopamine D3 receptor; [10],< 1000 nM
same,IC50,[1]; [12],110 nM
same,IC50,[1]; [13],< 1000 nM
"CCN(CC)C(=O)N[C@H]1C[C@@H]2c3cccc4[nH]c(Br)c(c34)C[C@H]2N(C)C1 [Compound A8H, 3-((6aR,9S, 10aR)-5-bromo-7-methyl-4,6,6a,7,8,9,10,10a-octahydroindolo[4,3-fg]quinolin-9-yl)-1,1-diethylurea]",IC50,Serotonin 5-HT7 receptor; [2],110 nM
same,IC50,Serotonin 5-HT7 receptor; [3],< 1000 nM
same,EC50,Dopamine D2L receptor; [4],1.1 nM
same,IC50,Dopamine D2L receptor; [5],3.5 nM
same,EC50,Dopamine D2L receptor; [11],< 1000 nM
same,IC50,Dopamine D2L receptor; [6],< 1000 nM
same,IC50,Dopamine D3 receptor; [8],9.3 nM
same,IC50,Dopamine D3 receptor; [10],< 1000 nM
same,IC50,[1]; [12],410 nM
same,IC50,[1]; [13],< 1000 nM
"CCN(CC(F)(F)F)C(=O)N[C@H]1C[C@@H]2c3cccc4[nH]c(C(F)(F)F)c(c34)C[C@H]2N(C)C1 [Compound A16H, 1-ethyl-3-((6aR,9S,10aR)-7-methyl-5-(trifluoromethyl)-4,6,6a,7,8,9,10,10a-octahydroindolo[4,3-fg]quinolin-9-yl)-1-(2,2,2-trifluoroethyl)urea]",IC50,"Serotonin 5-HT7 receptor; CHO-K1 cells, vs reference agonist at EC80, read-out: Antagonist Activity (IC50), 5-HT7",380 nM
same,IC50,Serotonin 5-HT7 receptor; [3],< 1000 nM
same,IC50,Dopamine D2L receptor; [6],< 1000 nM
same,IC50,"Dopamine D2L receptor; membrane extracts, vs reference agonist at EC80, read-out: Antagonist Activity (IC50), D2L",130 nM
same,IC50,Dopamine D3 receptor; [10],< 1000 nM
same,IC50,"Dopamine D3 receptor; membrane extracts, vs reference agonist at EC80, read-out: Antagonist Activity (IC50), D3",55 nM
same,IC50,[1]; [13],< 1000 nM
same,IC50,"[1]; membrane extracts, vs reference agonist at EC80, read-out: Antagonist Activity (IC50), 5-HT1B",340 nM
"CC[C@@H](CO)NC(=O)[C@@H]1C[C@@H]2c3cccc4c3c(c(C3CC3)n4C)C[C@H]2N(C)C1 [Compound D13H, (6aR,9R,10aR)-5-cyclopropyl-N—((S)-1-hydroxybutan-2-yl)-4,7-dimethyl-4,6,6a,7,8,9,10,10a-octahydroindolo[4,3-fg]quinoline-9-carboxamide]",EC50,Serotonin 5-HT7 receptor,40 nM
same,IC50,Serotonin 5-HT7 receptor; [2],780 nM
same,IC50,Serotonin 5-HT7 receptor; [3],< 1000 nM
same,EC50,Dopamine D2L receptor; [4],170 nM
same,EC50,Dopamine D2L receptor; [11],< 1000 nM
same,EC50,Dopamine D3 receptor; [7],48 nM
same,IC50,Dopamine D3 receptor; [8],400 nM
same,EC50,Dopamine D3 receptor; [9],< 1000 nM
same,IC50,Dopamine D3 receptor; [10],< 1000 nM
same,EC50,"[1]; Agonist Activity (EC50), 5-HT1B, membrane extracts",430 nM
same,EC50,"[1]; EC50 value for the Serotonin 5-HT1B receptor, agonist mode, bound stated",< 1000 nM
